Values joined by “and” are separate entries in the source; they are usually repeats but may differ in a detail not shown here. Identical values can stand only once.
Tests used:
hα6 + hβ4 nAChR = hα6 + hβ4 nAChR (Homo sapiens, UniProt P30926+Q15825); design: method as in Kuryatov et al. (2000) [29]; details: ref Kuryatov et al. (2000) [29]; cited from earlier work
[1] = target: hα6(A184D) + hβ4 + hβ3 nAChR (Homo sapiens, UniProt P30926+Q15825, A184D); experiment: Oocyte two-electrode voltage clamp; type: cell-based
hα6(A184D) + hβ4 + hβ3 nAChR, sequence (Q15825 26-494 A184D): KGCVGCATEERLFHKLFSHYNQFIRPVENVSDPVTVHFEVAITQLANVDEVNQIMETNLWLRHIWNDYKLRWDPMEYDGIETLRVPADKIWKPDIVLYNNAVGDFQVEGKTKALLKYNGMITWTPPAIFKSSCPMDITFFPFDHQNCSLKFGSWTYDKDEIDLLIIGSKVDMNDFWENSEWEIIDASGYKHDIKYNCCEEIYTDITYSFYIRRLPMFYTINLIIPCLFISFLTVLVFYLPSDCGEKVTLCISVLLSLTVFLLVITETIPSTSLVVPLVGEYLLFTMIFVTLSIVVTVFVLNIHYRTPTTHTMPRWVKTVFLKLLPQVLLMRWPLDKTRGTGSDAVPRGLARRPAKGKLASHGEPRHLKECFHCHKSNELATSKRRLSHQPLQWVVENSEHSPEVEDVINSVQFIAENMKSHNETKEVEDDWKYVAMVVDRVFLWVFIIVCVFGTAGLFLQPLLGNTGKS
hα6(A184D) + hβ4 + hβ3 nAChR, sequence (P30926 22-498): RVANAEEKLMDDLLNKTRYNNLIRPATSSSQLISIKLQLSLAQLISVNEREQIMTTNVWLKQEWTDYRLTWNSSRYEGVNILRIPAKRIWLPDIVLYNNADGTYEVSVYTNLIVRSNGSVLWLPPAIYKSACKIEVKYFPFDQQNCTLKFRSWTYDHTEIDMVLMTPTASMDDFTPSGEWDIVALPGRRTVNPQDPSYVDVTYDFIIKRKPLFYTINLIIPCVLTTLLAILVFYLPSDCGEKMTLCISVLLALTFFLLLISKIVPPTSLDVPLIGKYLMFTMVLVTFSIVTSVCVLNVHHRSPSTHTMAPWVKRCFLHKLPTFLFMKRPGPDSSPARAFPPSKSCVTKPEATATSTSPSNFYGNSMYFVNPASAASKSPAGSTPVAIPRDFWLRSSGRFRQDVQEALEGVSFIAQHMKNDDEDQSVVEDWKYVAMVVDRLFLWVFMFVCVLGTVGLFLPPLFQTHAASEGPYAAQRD
hα6(A184D) + hβ4 + hβ3 nAChR, sequence (Q05901 25-458 partner limits assumed): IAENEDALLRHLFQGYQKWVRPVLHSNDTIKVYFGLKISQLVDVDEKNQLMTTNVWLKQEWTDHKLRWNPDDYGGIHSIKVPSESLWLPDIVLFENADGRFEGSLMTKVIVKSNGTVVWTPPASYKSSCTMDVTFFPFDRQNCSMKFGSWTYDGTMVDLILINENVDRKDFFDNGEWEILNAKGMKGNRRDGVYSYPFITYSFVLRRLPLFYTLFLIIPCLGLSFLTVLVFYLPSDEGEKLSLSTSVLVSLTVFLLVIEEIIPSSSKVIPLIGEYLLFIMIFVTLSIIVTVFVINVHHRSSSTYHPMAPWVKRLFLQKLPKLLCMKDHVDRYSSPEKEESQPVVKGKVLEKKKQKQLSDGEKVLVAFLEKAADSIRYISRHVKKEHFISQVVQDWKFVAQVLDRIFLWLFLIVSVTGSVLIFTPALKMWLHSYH
Procedure: (§1) We planned to introduce identical amounts of cRNA, presumably producing equal amounts of each subunit protein, into oocytes largely due to lack of information about the levels of mRNA for each subunits that compose α6*-nAChRs in neurons or other cells. Concentrations of cRNAs for each nAChR α and β subunits (WT, mutant or variant) were adjusted to 500 ng μL^−1. We provisionally assumed that hα6 or its variants in association with hβ2 or hβ4 subunits would form complexes having 2:3 and/or 3:2 ratios of the indicated subunits and that oocytes also injected with WT or mutant form of β3 subunits (i.e., β3^V9’S) would express nAChR with 2:2:1 ratios of α:β:(β3 or β3^V9’S) subunits. For expression of binary nAChRs (i.e., two subunit containing nAChRs; α + β but not β3) cRNA mixtures were prepared by mixing 1 μL of cRNA for each subunit and an additional μL of RNAse free water (i.e., total volume 3 μL). Similarly for expression of ternary nAChRs [i.e., three subunit containing nAChRs; (α + β) + (β3 or β3^V9’S)] cRNA mixtures were prepared by mixing 1 μL of cRNA for each subunit. Several preparations of each mixture were prepared and stored at −80°C until further use. Injection of 138 nL of cRNA, out of 3 μL cRNA mixtures, into each oocyte would deliver ~23 ng of cRNA for each subunit whether binary or ternary nAChRs are expressed.
(§2) Two to 5 days after injection, oocytes were placed in a small-volume chamber and continuously perfused with OR2. The chamber was grounded through an agarose bridge. The oocytes were voltage-clamped at −70 mV (unless otherwise noted) to measure agonist or antagonist induced currents using Axoclamp 900A and pClamp 10.2 software (Molecular Devices, Sunnyvale, CA). The current signal was low-pass filtered at 10 Hz with the built-in low-pass Bessel filter in the Axoclamp 900A and digitized at 20 Hz with Axon Digidata1440A and pClamp10. […] Drugs (agonists and antagonists) were prepared daily in OR2. Drug was applied using a Valvelink 8.2 perfusion system (Automate scientific, Berkeley, CA). […] Then for the purpose of comparison electrophysiological recordings were performed in a given day in a given batch of oocytes following the same order of injections. […] All hβ4*-nAChR recordings were done in similar conditions to facilitate comparisons between hα6hβ4- and hα6hβ4hβ3-nAChRs. All electrophysiological measurements were conducted or checked in at least two batches of oocytes.
(§3) Raw data was collected and processed in part using pClamp 10.2 (Molecular Devices, Sunnyvale, CA), Origin 7.5 (OriginLab Corporation, Northampton, MA) and a spreadsheet (Excel; Microsoft, Bellevue, WA). Peak current amplitudes (Imax) are reported as mean ± SEM (for results from at least three oocytes, i.e., n = 3).

hα6(A184D) + hβ4 nAChR = hα6(A184D) + hβ4 nAChR (Homo sapiens, UniProt P30926+Q15825, A184D); experiment: Oocyte two-electrode voltage clamp; type: cell-based
hα6(A184D) + hβ4 nAChR, sequence (Q15825 26-494 A184D): as the sequence (Q15825 26-494 A184D) above
hα6(A184D) + hβ4 nAChR, sequence (P30926 22-498): as the sequence (P30926 22-498) above
Procedure: as §1, §2, §3

[2] = target: T1, hα6(R87C) + WT hβ2 + hβ3^V9’S nAChR (Homo sapiens, UniProt P17787+Q15825, R87C); experiment: Oocyte two-electrode voltage clamp; type: cell-based
T1 construct: Full length capped mRNA (i.e., cRNA) was transcribed from linearized plasmids; expressed in transfected cells; host or cells: Xenopus laevis oocytes injected with cRNA
Procedure: as §1, §2, §3

[3] = target: hα6(D92E) + hβ4 + hβ3 nAChR (Homo sapiens, UniProt P30926+Q15825, D92E); details: 100 μM nicotine; oocytes clamped at −70 mV
Procedure: as §1, §2, §3

hα6(I226T) + hβ4 nAChR = hα6(I226T) + hβ4 nAChR (Homo sapiens, UniProt P30926+Q15825, I226T); details: 100 μM nicotine; oocytes clamped at −70 mV
Procedure: as §1, §2, §3

[4] = target: hα6(E101K) + WT hβ2 + hβ3^V9’S nAChR (Homo sapiens, UniProt P17787+Q15825, E101K); details: 100 μM nicotine; 3 days after cRNA injection
Procedure: as §1, §2, §3

hα6(D92E) + hβ4 nAChR = hα6(D92E) + hβ4 nAChR (Homo sapiens, UniProt P30926+Q15825, D92E); details: 100 μM nicotine; oocytes clamped at −70 mV
hα6(D92E) + hβ4 nAChR, sequence (Q15825 26-494 D92E): as the sequence (Q15825 26-494 A184D) above, with D67E, D159A counted along it
hα6(D92E) + hβ4 nAChR, sequence (P30926 22-498): as the sequence (P30926 22-498) above
Procedure: as §1, §2, §3

[5] = target: hα6(N203T) + codon optimized hβ2 + hβ3^V9’S nAChR (Homo sapiens, UniProt P17787+Q15825, N203T); details: 100 μM nicotine; oocytes clamped at −70 mV
Procedure: as §1, §2, §3

[6] = target: hα6(I226T) + codon optimized hβ2 + hβ3^V9’S nAChR (Homo sapiens, UniProt P17787+Q15825, I226T); details: 100 μM nicotine; oocytes clamped at −70 mV
Procedure: as §1, §2, §3

hα6(N203T) + hβ4 nAChR = hα6(N203T) + hβ4 nAChR (Homo sapiens, UniProt P30926+Q15825, N203T); details: 100 μM nicotine; oocytes clamped at −70 mV
Procedure: as §1, §2, §3

[7] = target: hα6(N203T) + hβ4 + hβ3 nAChR (Homo sapiens, UniProt P30926+Q15825, N203T); details: 100 μM nicotine; oocytes clamped at −70 mV
Procedure: as §1, §2, §3

[8] = target: hα6(A184D) + codon optimized hβ2 + hβ3^V9’S nAChR (Homo sapiens, UniProt P17787+Q15825, A184D); details: 100 μM nicotine; oocytes clamped at −70 mV
Procedure: as §1, §2, §3

[9] = target: hα6(N46K) + WT hβ2 + hβ3^V9’S nAChR (Homo sapiens, UniProt P17787+Q15825, N46K); details: nicotine
Procedure: as §1, §2, §3

[10] = target: hα6 + WT hβ2 + hβ3^V9’S nAChR (Homo sapiens, UniProt P17787+Q15825); details: 100 μM nicotine; 3 days after cRNA injection
hα6 + WT hβ2 + hβ3^V9’S nAChR, sequence (Q15825 26-494): as the sequence (Q15825 26-494 A184D) above, with D159A counted along it
hα6 + WT hβ2 + hβ3^V9’S nAChR, sequence (P17787 26-502): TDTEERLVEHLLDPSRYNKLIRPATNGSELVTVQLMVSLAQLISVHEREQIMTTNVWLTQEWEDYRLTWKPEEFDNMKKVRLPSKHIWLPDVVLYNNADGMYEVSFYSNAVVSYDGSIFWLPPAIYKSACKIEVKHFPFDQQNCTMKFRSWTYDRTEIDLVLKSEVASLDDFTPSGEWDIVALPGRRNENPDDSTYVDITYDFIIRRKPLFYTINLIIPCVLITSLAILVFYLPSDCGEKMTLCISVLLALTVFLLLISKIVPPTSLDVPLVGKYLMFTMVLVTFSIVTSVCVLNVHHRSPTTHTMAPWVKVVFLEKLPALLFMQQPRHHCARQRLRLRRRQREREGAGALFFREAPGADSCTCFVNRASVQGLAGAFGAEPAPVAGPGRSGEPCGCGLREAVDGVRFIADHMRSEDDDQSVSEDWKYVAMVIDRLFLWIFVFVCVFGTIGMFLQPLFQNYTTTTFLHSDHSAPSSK
hα6 + WT hβ2 + hβ3^V9’S nAChR, sequence (Q05901 22-458 V273S partner): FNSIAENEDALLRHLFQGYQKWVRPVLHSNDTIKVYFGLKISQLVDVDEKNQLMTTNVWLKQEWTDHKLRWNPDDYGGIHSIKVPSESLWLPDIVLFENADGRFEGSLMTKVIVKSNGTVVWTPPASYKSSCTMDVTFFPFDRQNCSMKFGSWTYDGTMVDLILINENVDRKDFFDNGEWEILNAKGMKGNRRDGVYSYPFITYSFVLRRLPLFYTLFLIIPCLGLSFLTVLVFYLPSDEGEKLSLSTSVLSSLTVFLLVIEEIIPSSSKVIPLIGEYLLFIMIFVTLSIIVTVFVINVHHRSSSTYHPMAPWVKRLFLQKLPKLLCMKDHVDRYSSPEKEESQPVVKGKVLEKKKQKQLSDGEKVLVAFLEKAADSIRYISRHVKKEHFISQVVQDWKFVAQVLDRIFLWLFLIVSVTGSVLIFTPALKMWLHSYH
Procedure: as §1, §2, §3

[11] = target: hα6(R87C) + hβ4 + hβ3 nAChR (Homo sapiens, UniProt P30926+Q15825, R87C); details: nicotine
Procedure: as §1, §2, §3

[12] = 100 μM nicotine, oocytes clamped at −70 mV

CN1CCC[C@H]1c1cccnc1 [nicotine, L-nicotine]
EC50 (hα6 + hβ4 nAChR): 7.1 µM
EC50 [1]: 4.9 µM
Imax conc. (concentration where maximal peak current achieved) [1]: 100 µM
nH ± SE (Hill coefficient) [1]: 1.1±0.11
Mean (±SE) peak current response [1, 12]: 554 ± 108 nA
EC50 (hα6(A184D) + hβ4 nAChR): 2.7 µM
Imax conc. (concentration where maximal peak current achieved) (hα6(A184D) + hβ4 nAChR): 100 µM
nH ± SE (Hill coefficient) (hα6(A184D) + hβ4 nAChR): 1.1±0.15
peak current (Imax, mean ± SE) (hα6(A184D) + hβ4 nAChR; [12]): 122 ± 12 nA
current response ([2]; ACh, nicotine or atropine, hβ2 type not specified): not obtained
current response ([2]; nicotine): did not yield current responses
Mean (±SE) peak current response [3]: 126 ± 5 nA
peak current (Imax, mean ± SE) (hα6(I226T) + hβ4 nAChR): 81 ± 10 nA
peak current response [4]: 15-30 nA
peak current (Imax, mean ± SE) (hα6(D92E) + hβ4 nAChR): 19 ± 2 nA
peak current (Imax, mean ± SE) [5]: 762 ± 253 nA
peak current (Imax, mean ± SE) [6]: 753 ± 137 nA
peak current (Imax, mean ± SE) (hα6(N203T) + hβ4 nAChR): 33 ± 3 nA
Mean (±SE) peak current response [7]: 371 ± 68 nA
peak current (Imax, mean ± SE) [8]: 616 ± 95 nA
current response [9]: did not yield current responses
peak current response [10]: 15 ± 2 nA and 15-30 nA
current response [11]: did not elicit current responses

— paper PMC4022547 (Molecular Brain, 2014)
